How the values were obtained:
rat NR1/NR2B receptor [1] = target: T1, rat NR1/NR2B receptor (Rattus norvegicus (Rat), UniProt P35439+Q00960); assay: NR2B binding assay: inhibition of specific [3H]-Ifenprodil binding to the rat NR1/NR2B receptor; details: for inhibition at 1 µM: 1 μM test compound, read-out: NR2B binding assay % INH @ 1 μM; for inhibition at 10 µM: 10 μM test compound, read-out: NR2B binding assay % INH @ 10 μM; for IC50: rat brain membranes, [3H]-Ifenprodil, Hill-plot 2-parameter model
Method: Inhibition of Specific Binding to the Rat NR1/NR2B Receptor
Male Wistar rats (180 to 200 g) were killed by suffocation in a CO2 chamber for two minutes. Whole brains without cerebellum were removed and dissected on ice, placed into closed vials and stored at −70° C.
Membrane fractions were prepared and tested using standard techniques. At the time of the assay, 1 g of the brains was placed into 25 ml of 50 mM Tris/10 mM EDTA buffer, pH 7.1, (25 vol. per g of original tissue) and homogenized for 30 sec at 20000 rpm with an Ultraturrax T25 (Jahnke & Kunkel, IKA-Labortechnik, Staufen, Germany). The homogenate was centrifuged at 4° C. for 10 min at 48000 g (OPTIMA L-70, Beckman, Palo Alto, Calif. 94304, USA).
The supernatant was discarded and the pellet was homogenized on ice for 30 sec at 20000 rpm with an Ultraturrax and again centrifuged at 48000 g for 30 minutes at 4° C. The resulted pellet was resuspended in 25 ml of 50 mM Tris/10 mM EDTA buffer, homogenized for 30 sec with an Ultraturrax, aliquoted, frozen at −70° C. and stored until use.
After thawing on the day of the assay, a 5 ml membrane aliquot was centrifuged at 48000 g for 30 min at 4° C. The pellet was resuspended in 5 ml of 5 mM Tris/1 mM EDTA buffer, pH 7.4, homogenized for 30 sec at 20000 rpm with an Ultraturrax and centrifuged at 48000 g for 30 min at 4° C. This was repeated twice. The final pellet was homogenized in 5 ml of 5 mM Tris/1 mM EDTA buffer at 4° C. with an Ultraturrax and used for the Ifenprodil-binding assay as described in the following.
Nonspecific binding was estimated in the presence of […] CP101.606. The samples were incubated for 60 min. at 4° C.
The incubation was terminated by filtration of the membrane preparations using Filtermat B (Pharmacia, Uppsala Sweden) and a Micro Cell Harvester (Skatron, Lier, Norway). The Filtermat B had been presoaked with 1% polyethylene imine and carefully washed with 50 mM Tris/HCl-buffer pH 7.7 after the filtration to separate free and bound radioactivity.
The optimal amount of membrane preparation in the assay had been determined and optimized for each membrane preparation separately before the test.
For pipetting of the incubation mixture we routinely used the robot Biomek2000 (Fa. Beckman).
For determination of IC50 values the Hill-plot, 2-parameter-model was used.

hERG receptor = hERG receptor (Homo sapiens (Human), UniProt Q12809); assay: HERGBD: inhibition of specific [3H]-Dofetilide binding to the hERG receptor; details: HEK hERG membranes, Hill-plot 2-parameter model
rat NR1/NR2B receptor [2] = target: T1, rat NR1/NR2B receptor; assay: RRNR2BB: inhibition of specific [3H]-Ifenprodil binding to the rat NR1/NR2B receptor; details: rat brain membranes, Hill-plot 2-parameter model

T1 sequence (Q00960 27-1482, other chains not shown): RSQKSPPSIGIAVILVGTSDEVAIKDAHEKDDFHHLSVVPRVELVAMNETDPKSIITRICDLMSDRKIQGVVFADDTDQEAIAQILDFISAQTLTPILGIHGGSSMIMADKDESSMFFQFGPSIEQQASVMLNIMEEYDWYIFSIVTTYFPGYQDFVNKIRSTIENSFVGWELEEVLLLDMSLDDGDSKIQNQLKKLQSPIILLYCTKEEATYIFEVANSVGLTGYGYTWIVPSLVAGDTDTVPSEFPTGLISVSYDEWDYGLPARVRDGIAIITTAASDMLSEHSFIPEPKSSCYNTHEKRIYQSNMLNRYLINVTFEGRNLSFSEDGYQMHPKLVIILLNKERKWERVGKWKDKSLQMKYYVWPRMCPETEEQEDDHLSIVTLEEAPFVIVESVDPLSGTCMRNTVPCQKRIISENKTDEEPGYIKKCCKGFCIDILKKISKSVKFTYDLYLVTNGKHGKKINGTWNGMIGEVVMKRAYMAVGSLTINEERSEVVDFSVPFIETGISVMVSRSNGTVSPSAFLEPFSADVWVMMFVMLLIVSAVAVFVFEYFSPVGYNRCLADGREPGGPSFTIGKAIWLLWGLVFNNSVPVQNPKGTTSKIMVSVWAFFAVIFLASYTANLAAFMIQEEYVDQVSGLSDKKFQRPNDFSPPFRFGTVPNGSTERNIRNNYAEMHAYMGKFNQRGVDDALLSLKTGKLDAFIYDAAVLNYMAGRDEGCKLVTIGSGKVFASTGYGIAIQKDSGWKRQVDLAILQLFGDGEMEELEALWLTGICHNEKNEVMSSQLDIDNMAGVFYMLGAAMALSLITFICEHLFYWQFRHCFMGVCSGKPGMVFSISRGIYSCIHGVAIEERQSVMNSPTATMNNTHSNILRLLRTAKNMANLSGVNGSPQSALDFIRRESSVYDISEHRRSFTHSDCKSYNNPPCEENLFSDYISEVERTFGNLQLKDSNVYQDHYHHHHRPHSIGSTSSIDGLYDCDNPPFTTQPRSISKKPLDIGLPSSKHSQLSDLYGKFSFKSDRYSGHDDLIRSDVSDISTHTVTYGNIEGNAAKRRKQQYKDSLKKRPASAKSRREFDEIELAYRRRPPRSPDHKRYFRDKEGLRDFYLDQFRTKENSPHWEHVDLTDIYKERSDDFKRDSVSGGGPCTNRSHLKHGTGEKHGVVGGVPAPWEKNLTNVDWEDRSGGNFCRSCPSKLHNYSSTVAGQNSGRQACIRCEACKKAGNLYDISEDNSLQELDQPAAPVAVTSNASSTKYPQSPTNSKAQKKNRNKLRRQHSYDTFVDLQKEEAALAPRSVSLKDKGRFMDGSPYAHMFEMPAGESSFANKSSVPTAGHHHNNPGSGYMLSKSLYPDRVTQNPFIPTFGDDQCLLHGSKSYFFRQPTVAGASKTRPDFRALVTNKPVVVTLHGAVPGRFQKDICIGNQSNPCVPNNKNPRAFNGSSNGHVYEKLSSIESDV
Chain of hERG receptor (Q12809 whole entry): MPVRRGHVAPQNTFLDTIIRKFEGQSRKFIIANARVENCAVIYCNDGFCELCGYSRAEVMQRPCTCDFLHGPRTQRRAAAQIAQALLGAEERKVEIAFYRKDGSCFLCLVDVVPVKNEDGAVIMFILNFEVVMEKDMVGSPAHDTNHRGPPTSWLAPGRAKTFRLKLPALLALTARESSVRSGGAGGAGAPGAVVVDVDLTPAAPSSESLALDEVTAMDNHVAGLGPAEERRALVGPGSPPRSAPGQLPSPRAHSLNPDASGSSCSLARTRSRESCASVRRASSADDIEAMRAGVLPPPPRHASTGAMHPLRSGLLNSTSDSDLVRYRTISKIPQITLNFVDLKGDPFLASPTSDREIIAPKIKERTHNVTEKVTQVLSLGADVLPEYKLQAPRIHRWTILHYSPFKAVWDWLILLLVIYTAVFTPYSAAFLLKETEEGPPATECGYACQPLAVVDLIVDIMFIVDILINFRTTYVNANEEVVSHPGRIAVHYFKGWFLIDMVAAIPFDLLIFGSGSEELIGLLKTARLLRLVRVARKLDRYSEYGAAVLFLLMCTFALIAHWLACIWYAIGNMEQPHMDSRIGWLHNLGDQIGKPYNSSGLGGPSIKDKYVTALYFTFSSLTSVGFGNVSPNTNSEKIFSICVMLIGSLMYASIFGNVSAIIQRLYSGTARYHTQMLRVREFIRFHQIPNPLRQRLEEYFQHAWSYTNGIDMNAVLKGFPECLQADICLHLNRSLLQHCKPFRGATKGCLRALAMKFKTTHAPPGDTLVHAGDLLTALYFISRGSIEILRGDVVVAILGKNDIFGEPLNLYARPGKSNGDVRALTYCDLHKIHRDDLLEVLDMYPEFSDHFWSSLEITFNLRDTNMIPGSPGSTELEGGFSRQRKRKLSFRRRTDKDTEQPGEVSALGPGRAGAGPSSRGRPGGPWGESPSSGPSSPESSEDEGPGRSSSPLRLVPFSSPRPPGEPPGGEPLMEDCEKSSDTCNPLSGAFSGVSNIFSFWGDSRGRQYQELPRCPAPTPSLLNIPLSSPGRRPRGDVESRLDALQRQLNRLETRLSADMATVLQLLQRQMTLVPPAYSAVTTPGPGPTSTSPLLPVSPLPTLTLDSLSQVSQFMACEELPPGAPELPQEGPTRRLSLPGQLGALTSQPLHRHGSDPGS

Row | SMILES | inhibition at 1 µM (rat NR1/NR2B receptor [1]) [%] | inhibition at 10 µM (rat NR1/NR2B receptor [1]) [%] | IC50 (rat NR1/NR2B receptor [2]) [µM] | IC50 (rat NR1/NR2B receptor [1]) [µM] | IC50 (hERG receptor) [µM]
1 | FC(F)(F)c1ncn(Cc2cn(-c3ccc(Cl)cc3)nn2)n1 [Example 17, 1-(4-Chloro-phenyl)-4-(3-trifluoromethyl-[1,2,4]triazol-1-ylmethyl)-1H-[1,2,3]triazole] | 19.9 | 12.5 | – | – | –
2 | CCc1ncn(Cc2cn(-c3ccc(Cl)cc3)nn2)n1 [Example 6, 1-(4-Chloro-phenyl)-4-(3-ethyl-[1,2,4]triazol-1-ylmethyl)-1H-[1,2,3]triazole] | 11.8 | 21.6 | – | – | –
3 | Clc1ccc(-n2cc(Cn3nc(C4CC4)nc3C3CC3)nn2)cc1 [Example 10, 1-(4-Chlorophenyl)-4-(3,5-dicyclopropyl-[1,2,4]triazol-1-ylmethyl)-1-[1,2,3]triazole] | -6 | 3.5 | – | – | –
4 | Cc1nc(C)n(Cc2cn(-c3ccc(Cl)cc3)nn2)n1 [Example 1, 1-(4-Chloro-phenyl)-4-(3,5-dimethyl-[1,2,4]triazol-1-ylmethyl)-1H-[1,2,3]triazole] | 12.4 | 31.5 | – | – | –
5 | CC(C)c1ncn(Cc2cn(-c3ccc(Cl)cc3)nn2)n1 [Example 4, 1-(4-Chloro-phenyl)-4-(3-isopropyl-[1,2,4]triazol-1-ylmethyl)-1H-[1,2,3]triazole] | 21.6 | 2 | – | – | –
6 | CCc1ncnn1Cc1cn(-c2ccc(Cl)cc2)nn1 [Example 5, 1-(4-Chloro-phenyl)-4-(5-ethyl-[1,2,4]triazol-1-ylmethyl)-1H-[1,2,3]triazole] | 1.2 | 30.1 | – | – | –
7 | CCCc1ncn(Cc2cn(-c3ccc(Cl)cc3)nn2)n1 [Example 3, 1-(4-Chloro-phenyl)-4-(3-propyl-[1,2,4]triazol-1-ylmethyl)-1H-[1,2,3]triazole] | 18.3 | 4.5 | – | – | –
8 | Clc1ccc(-n2cc(Cn3ncnc3C3CCC3)nn2)cc1 [Example 11, 1-(4-Chloro-phenyl)-4-(5-cyclobutyl-[1,2,4]triazol-1-ylmethyl)-1H-[1,2,3]triazole] | 8.7 | 41.5 | – | – | –
9 | Cc1ncnn1Cc1cn(-c2ccc(Cl)cc2)nn1 [Example 8, 1-(4-Chloro-phenyl)-4-(5-methyl-[1,2,4]triazol-1-ylmethyl)-1H-[1,2,3]triazole] | 8.3 | 38.7 | – | – | –
10 | Clc1ccc(-n2cc(Cn3ncnc3C3CC3)nn2)cc1 [Example 16, 1-(4-Chloro-phenyl)-4-(5-cyclopropyl-[1,2,4]triazol-1-ylmethyl)-1H-[1,2,3]triazole] | 3.6 | 32.6 | – | – | –
11 | CCCc1ncnn1Cc1cn(-c2ccc(Cl)cc2)nn1 [Example 2, 1-(4-Chloro-phenyl)-4-(5-propyl-[1,2,4]triazol-1-ylmethyl)-1H-[1,2,3]triazole] | 23.9 | 43 | – | – | –
12 | Clc1ccc(-n2cc(Cn3cnc(C4CC4)n3)nn2)cc1 [Example 13, 1-(4-Chloro-phenyl)-4-(3-cyclopropyl-[1,2,4]triazol-1-ylmethyl)-1H-[1,2,3]triazole] | 7.5 | 16.2 | – | – | –
13 | Cc1ncn(Cc2cn(-c3ccc(Cl)cc3)nn2)n1 [Example 9, 1-(4-Chloro-phenyl)-4-(3-methyl-[1,2,4]triazol-1-ylmethyl)-1H-[1,2,3]triazole] | 6.6 | 17.9 | – | – | –
14 | Clc1ccc(-n2cc(Cn3cnc(C4CCCC4)n3)nn2)cc1 [Example 15] | 6.4 | 22.2 | – | – | –
15 | Cc1nccn1Cc1cn(-c2ccc(F)c(C(C)(F)F)c2)nn1 [Example 105, 1-[3-(1,1-Difluoro-ethyl)-4-fluoro-phenyl]-4-(2-methyl-imidazol-1-ylmethyl)-1H-[1,2,3]triazole] | – | – | – | – | 23.1
16 | CC(C)c1ncnn1Cc1cn(-c2ccc(Cl)cc2)nn1 [Example 7, 1-(4-Chloro-phenyl)-4-(5-isopropyl-[1,2,4]triazol-1-ylmethyl)-1H-[1,2,3]triazole] | 2.3 | 40.9 | – | – | –
17 | Clc1ccc(-n2cc(Cn3ncnc3C3CCCC3)nn2)cc1 [Example 14, 1-(4-Chloro-phenyl)-4-(5-cyclopentyl-[1,2,4]triazol-1-ylmethyl)-1H-[1,2,3]triazole] | – | 49.6 | – | – | –
18 | Clc1ccc(-n2cc(Cn3cnc(C4CCC4)n3)nn2)cc1 [Example 12, 1-(4-Chloro-phenyl)-4-(3-cyclobutyl-[1,2,4]triazol-1-ylmethyl)-1H-[1,2,3]triazole] | -0.66 | 11 | – | – | –

More lines, main results first:

Row | inhibition at 1 µM (rat NR1/NR2B receptor [1]) [%] | inhibition at 10 µM (rat NR1/NR2B receptor [1]) [%] | IC50 (rat NR1/NR2B receptor [2]) [µM] | IC50 (rat NR1/NR2B receptor [1]) [µM] | SMILES | IC50 (hERG receptor) [µM]
19 | -1.6 | 6.8 | – | – | Cc1nc(C2CCC2)n(Cc2cn(-c3ccc(Cl)cc3)nn2)n1 [Example 21, 1-(4-Chloro-phenyl)-4-(5-cyclobutyl-3-methyl-[1,2,4]triazol-1-ylmethyl)-1H-[1,2,3]triazole] | –
20 | 12.7 | 53.2 | – | – | CC(C)(C)c1nccn1Cc1cn(-c2ccc(Cl)cc2)nn1 [Example 30, 4-(2-tert-Butyl-imidazol-1-ylmethyl)-1-(4-chloro-phenyl)-1H-[1,2,3]triazole] | –
21 | – | – | 0.186 | 0.186 | FCCc1nccn1Cc1cn(-c2cc(F)cc(C(F)F)c2)nn1 [Example 104, 1-(3-Difluoromethyl-5-fluoro-phenyl)-4-[2-(2-fluoro-ethyl)-imidazol-1-ylmethyl]-1H-[1,2,3]triazole] | 30.6
22 | 9.3 | 7.4 | – | – | Cc1nc(C)n(Cc2cn(-c3ccccc3)nn2)n1 [Example 46, 4-(3,5-Dimethyl-[1,2,4]triazol-1-ylmethyl)-1-phenyl-1H-[1,2,3]triazole] | –
23 | -4.9 | – | – | – | Cc1ccc(C(=O)c2nccn2Cc2cn(-c3ccc(Cl)cc3)nn2)cc1 [Example 116, [1-[[1-(4-chlorophenyl)triazol-4-yl]methyl]imidazol-2-yl]-(p-tolyl)methanone] | –
24 | 3.7 | 2.2 | – | – | Cc1nncn1Cc1cn(-c2ccc(Cl)cc2)nn1 [Example 31, 1-(4-Chloro-phenyl)-4-(3-methyl-[1,2,4]triazol-4-ylmethyl)-1H-[1,2,3]triazole] | –
25 | 29.6 | -17.1 | – | – | Cc1nc(CO)nn1Cc1cn(-c2ccccc2)nn1 [Example 48, 4-(3-Hydroxymethyl-5-methyl-[1,2,4]triazol-1-ylmethyl)-1-phenyl-1H-[1,2,3]triazole] | –
26 | 27 | 15.3 | – | – | CC(C)(C)c1ncn(Cc2cn(-c3ccc(Cl)cc3)nn2)n1 [Example 20, 4-(3-tert-Butyl-[1,2,4]triazol-1-ylmethyl)-1-(4-chloro-phenyl)-1H-[1,2,3]triazole] | –
27 | – | – | 0.263 | 0.263 | OCCc1nccn1Cc1cn(-c2ccc(S(F)(F)(F)(F)F)cc2)nn1 [Example 118, 2-(1-((1-(4-(pentafluoro-l6-sulfanyl)phenyl)-1H-1,2,3-triazol-4-yl)methyl)-1H-imidazol-2-yl)ethan-1-ol] | –
28 | 33.8 | -8.4 | – | – | Cc1nc(CO)n(Cc2cn(-c3ccccc3)nn2)n1 [Example 47, 4-(5-Hydroxymethyl-3-methyl-[1,2,4]triazol-1-ylmethyl)-1-phenyl-1H-[1,2,3]triazole] | –
29 | 14.5 | -2.2 | – | – | Cc1nc(C2CCC2)nn1Cc1cn(-c2ccc(Cl)cc2)nn1 [Example 22, 1-(4-Chloro-phenyl)-4-(3-cyclobutyl-5-methyl-[1,2,4]triazol-1-ylmethyl)-1H-[1,2,3]triazole] | –
30 | 8.2 | 14.5 | – | – | CC(C)(C)c1ncnn1Cc1cn(-c2ccc(Cl)cc2)nn1 [Example 19, 4-(5-tert-Butyl-[1,2,4]triazol-1-ylmethyl)-1-(4-chloro-phenyl)-1H-[1,2,3]triazole] | –
31 | 28.7 | 51.4 | – | – | Clc1ccc(-n2cc(Cn3ccnc3Cl)nn2)cc1 [Example 26, 4-(2-Chloro-imidazol-1-ylmethyl)-1-(4-chloro-phenyl)-1H-[1,2,3]triazole] | –

Source: US10323021B2, “Triazoles as NR2B receptor inhibitors” (Janssen Pharmaceuticals, Inc., priority 2014, dated 2019)
